Measured values from patent publication US20100227853A1, “INHIBITORS OF CYCLIC AMP PHOSPHODIESTERASES” (Trustees of Boston College, priority 2008, published 2010).

Legend:
[1] = target: T1, PDE4D2-CAT (Homo sapiens, UniProt Q08499); assay: in vitro enzyme assay, catalytic fragment of PDE4D2 (residues 86-413); format: biochemical
T1 construct: 86-413; made in house; host or cells: E. coli

[2] = tested on: U937 cells; assay: TNF alpha release by LPS-treated U937 cells; format: cell-based; conditions: for TNF alpha, % vehicle control: 10 uM cmpd, 0 uM BC30
[3] = tested on: PDE4A, PDE4B, PDE4D, PDE7A, PDE7B, PDE8A, PDE3A; assay: Summary of PDE inhibitor profile; set-up: key to PDE inhibitor profile (Table 17): (1): Strong PDE4A, PDE4B inhibitor; (2): Strong PDE4A inhibitor; (3): Strong PDE4B, moderate PDE4A inhibitor; (4): Moderate PDE4A, PDE4B inhibitor; (5): Moderate PDE4B inhibitor; key to inhibitor class, Table 16: (1): Weak PDE7A inhibitor; (2): Strong PDE7A inhibitor; (3): Lillte/no activity under conditions used; (4): Weak PDE4A inhibitor
[4] = target: T2, PDE4B3 (Mus musculus, UniProt Q8VBU5); assay: 5FOA growth assay in fission yeast strain expressing PDE4B3; format: cell-based, Murine; conditions: 20 uM
T2 construct: targets used in the assays are full-length proteins (as opposed to simply the catalytic domain); expressed in transfected cells; host or cells: Schizosaccharomyces pombe, PDE gene integrated in place of cgs2
T2 sequence (Q8VBU5 1-721): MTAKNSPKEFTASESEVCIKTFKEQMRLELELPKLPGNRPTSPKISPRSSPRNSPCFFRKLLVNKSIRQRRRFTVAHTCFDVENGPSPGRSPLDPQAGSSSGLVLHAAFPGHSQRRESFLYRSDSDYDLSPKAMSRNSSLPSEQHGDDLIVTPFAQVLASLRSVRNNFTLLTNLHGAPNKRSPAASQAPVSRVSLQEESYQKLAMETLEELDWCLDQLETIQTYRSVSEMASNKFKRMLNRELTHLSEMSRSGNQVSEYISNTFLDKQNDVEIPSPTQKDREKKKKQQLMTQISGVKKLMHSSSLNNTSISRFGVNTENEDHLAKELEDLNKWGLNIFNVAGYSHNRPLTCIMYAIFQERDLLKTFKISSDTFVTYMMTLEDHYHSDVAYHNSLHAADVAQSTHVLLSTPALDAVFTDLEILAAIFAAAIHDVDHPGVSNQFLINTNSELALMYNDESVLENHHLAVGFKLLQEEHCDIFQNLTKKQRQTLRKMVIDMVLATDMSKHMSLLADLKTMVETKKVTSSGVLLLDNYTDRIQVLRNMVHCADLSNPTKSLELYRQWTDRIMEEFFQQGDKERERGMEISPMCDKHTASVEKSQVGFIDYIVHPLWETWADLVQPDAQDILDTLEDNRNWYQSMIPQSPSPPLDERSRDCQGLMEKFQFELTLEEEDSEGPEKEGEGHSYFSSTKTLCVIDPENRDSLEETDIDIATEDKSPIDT
Outline: (§1)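 Fission yeast strains carrying mouse PDE4A1 or PDE4B3 and an fbp1-ura4 reporter were pregrown in EMM with 0.5–2.5 mM cAMP, then seeded at 0.5–4×10^5 cells/ml in 5FOA medium with compound. Growth was read as OD600 after 48 h at 30° C; composite Z scores were derived.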

[5] = target: T3, PDE7A (Homo sapiens, UniProt Q13946); assay: 5FOA growth assay in fission yeast strain expressing PDE7A; format: cell-based; set-up: targets used in the assays are full-length proteins (as opposed to simply the catalytic domain); expressed in transfected cells; host or cells: Schizosaccharomyces pombe, PDE gene integrated in place of cgs2; conditions: unit not given
T3 sequence (Q13946 whole entry, the tested form may be a part): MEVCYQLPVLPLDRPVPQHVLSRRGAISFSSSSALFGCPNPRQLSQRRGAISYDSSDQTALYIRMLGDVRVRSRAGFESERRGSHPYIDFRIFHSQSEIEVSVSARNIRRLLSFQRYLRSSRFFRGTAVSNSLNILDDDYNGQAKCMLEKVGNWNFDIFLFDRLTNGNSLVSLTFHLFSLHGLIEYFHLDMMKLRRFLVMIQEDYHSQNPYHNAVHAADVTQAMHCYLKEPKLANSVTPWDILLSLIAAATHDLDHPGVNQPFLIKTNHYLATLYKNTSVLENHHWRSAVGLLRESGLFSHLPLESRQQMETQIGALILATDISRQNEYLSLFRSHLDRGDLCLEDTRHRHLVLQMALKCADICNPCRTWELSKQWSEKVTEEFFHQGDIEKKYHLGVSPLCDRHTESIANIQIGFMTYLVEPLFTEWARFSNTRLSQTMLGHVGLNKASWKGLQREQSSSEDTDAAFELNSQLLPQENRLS
Protocol: PDE inhibition allows growth in 5FOA medium as measured by optical density after 48 hours incubation at 30° C. Compound BC12 and six structural analogs were tested for growth stimulation.
Cells were pregrown in EMM medium [MP Biomedicals (Solon, Ohio), 3% glucose, filter-sterilized to avoid carmelization, which would introduce variability into the optical density of the medium] containing from 0 mM to 2.5 mM cAMP (or either 0.5 mM or 1.0 mM cGMP). This was to repress expression of the fbp1-ura4 reporter prior to exposure of cells to 5FOA medium. Cells were grown at 30° C. to exponential phase (approximately 10^7 cells/ml). Cells were collected by centrifugation and resuspended in 5FOA medium, and 25 μl were transferred to 384-well microtiter dishes (untreated, with flat clear bottoms) that had been pre-filled with 25 μl 5FOA medium and pre-pinned with 100 nl of compounds (stock solutions were generally 10 mM). Starting cell concentrations ranged from 0.5×10^5 to 4×10^5 cells/ml depending on the screening strain. […] Other positive control dishes contained 5 mM cAMP in the 5FOA medium for PDEs that lack appropriate control compounds. Cultures were grown for 48 hours at 30° C., sealed in an airtight container with moist paper towels to prevent evaporation. Optical densities (OD600) of cultures were measured using a microplate reader. Bioinformatic analysis of the results to determine composite Z scores was performed as previously described (1, 3).

[6] = target: PDE4A (Homo sapiens, UniProt P27815); assay: in vitro enzyme assay PDE4A (Table 7); format: biochemical; conditions: 2 micromolar compound; for remaining activity at 2 µM: read-out: percent of PDE activity present, PDE4A
PDE4A, sequence (P27815 whole entry, species assumed): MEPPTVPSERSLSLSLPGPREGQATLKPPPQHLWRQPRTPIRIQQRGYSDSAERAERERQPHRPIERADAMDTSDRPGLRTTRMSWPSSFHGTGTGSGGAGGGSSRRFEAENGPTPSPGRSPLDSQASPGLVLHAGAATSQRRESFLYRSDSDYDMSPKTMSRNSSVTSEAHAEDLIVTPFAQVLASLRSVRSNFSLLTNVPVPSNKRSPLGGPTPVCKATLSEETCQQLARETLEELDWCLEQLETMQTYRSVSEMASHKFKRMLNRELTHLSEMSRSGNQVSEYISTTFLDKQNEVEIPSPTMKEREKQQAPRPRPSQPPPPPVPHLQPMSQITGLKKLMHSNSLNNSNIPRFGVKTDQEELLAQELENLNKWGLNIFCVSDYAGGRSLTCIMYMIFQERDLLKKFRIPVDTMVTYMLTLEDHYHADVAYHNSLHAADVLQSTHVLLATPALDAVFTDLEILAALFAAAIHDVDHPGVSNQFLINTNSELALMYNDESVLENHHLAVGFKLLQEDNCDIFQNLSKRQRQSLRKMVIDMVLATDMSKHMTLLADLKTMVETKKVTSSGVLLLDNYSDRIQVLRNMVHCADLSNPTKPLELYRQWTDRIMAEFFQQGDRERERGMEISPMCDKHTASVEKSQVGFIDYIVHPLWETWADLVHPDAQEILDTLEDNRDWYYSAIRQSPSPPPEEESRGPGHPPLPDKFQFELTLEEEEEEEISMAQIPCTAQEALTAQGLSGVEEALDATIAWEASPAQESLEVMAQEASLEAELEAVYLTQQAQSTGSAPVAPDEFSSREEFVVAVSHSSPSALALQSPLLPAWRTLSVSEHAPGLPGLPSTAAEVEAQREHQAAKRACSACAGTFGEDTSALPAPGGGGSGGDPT

[7] = target: T3, PDE7A; assay: in vitro enzyme assay PDE7A; format: biochemical; set-up: made in house; host or cells: E. coli; conditions: 2 micromolar compound; for remaining activity at 2 µM: read-out: percent of PDE activity present, PDE7A
[8] = target: PDE4B (Homo sapiens, UniProt Q07343); assay: in vitro enzyme assay PDE4B (Table 7); format: biochemical; conditions: 2 micromolar compound; for remaining activity at 2 µM: read-out: percent of PDE activity present, PDE4B
PDE4B, sequence (Q07343 whole entry, species assumed): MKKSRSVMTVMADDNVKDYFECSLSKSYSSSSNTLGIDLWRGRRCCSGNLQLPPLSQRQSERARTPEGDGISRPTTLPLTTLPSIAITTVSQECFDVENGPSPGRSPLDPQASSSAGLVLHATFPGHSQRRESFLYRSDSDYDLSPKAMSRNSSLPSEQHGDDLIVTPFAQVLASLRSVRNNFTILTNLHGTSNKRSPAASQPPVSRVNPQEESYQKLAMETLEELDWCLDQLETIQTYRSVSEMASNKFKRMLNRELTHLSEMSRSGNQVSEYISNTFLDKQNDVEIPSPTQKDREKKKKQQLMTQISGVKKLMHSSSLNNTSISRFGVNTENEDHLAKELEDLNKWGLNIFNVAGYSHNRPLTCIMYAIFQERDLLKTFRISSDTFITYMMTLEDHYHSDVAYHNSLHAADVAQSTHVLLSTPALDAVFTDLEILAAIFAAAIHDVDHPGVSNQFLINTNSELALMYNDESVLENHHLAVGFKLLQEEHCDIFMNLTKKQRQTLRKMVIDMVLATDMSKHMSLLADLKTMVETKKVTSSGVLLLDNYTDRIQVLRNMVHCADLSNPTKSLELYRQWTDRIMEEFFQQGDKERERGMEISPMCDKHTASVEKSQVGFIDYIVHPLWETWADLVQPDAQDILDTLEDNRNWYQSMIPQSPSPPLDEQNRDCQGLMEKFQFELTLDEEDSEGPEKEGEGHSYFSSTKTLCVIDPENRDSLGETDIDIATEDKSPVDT

[9] = target: PDE4D (Homo sapiens, UniProt Q08499); assay: in vitro enzyme assay PDE4D (Table 7); format: biochemical; conditions: 2 micromolar compound; for remaining activity at 2 µM: read-out: percent of PDE activity present, PDE4D
PDE4D, sequence (Q08499 whole entry): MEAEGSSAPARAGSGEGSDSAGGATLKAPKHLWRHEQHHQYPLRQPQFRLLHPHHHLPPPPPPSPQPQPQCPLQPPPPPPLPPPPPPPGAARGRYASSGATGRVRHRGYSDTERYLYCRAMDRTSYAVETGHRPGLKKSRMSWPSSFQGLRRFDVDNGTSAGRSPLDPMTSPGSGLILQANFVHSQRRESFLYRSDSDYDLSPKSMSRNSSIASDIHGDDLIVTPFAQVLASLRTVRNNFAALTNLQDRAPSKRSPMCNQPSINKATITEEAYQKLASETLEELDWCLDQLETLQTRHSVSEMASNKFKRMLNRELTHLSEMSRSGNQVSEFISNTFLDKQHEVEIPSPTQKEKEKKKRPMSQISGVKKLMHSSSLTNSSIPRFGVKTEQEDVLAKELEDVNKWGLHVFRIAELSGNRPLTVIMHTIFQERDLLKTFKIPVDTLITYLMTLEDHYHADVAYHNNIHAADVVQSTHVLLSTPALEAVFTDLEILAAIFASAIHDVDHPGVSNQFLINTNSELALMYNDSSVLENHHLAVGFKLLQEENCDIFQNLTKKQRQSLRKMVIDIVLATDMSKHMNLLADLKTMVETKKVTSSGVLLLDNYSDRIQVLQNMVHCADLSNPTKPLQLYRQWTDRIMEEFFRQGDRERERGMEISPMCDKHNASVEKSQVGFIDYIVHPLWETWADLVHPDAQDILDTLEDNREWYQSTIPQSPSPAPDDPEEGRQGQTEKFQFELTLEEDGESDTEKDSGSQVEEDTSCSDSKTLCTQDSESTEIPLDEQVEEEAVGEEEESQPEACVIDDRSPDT

[10] = target: T4, PDE4A1 (Mus musculus, UniProt O89084); assay: 5FOA growth assay (high throughput screen, ED50) in fission yeast strain expressing PDE4A1; format: cell-based; conditions: high throughput 5FOA growth screen; greater than 8.53 = statistically-significant inhibitor
T4 construct: targets used in the assays are full-length proteins (as opposed to simply the catalytic domain); expressed in transfected cells; host or cells: Schizosaccharomyces pombe, PDE gene integrated in place of cgs2
T4 sequence (O89084 1-610 isoform O89084-2): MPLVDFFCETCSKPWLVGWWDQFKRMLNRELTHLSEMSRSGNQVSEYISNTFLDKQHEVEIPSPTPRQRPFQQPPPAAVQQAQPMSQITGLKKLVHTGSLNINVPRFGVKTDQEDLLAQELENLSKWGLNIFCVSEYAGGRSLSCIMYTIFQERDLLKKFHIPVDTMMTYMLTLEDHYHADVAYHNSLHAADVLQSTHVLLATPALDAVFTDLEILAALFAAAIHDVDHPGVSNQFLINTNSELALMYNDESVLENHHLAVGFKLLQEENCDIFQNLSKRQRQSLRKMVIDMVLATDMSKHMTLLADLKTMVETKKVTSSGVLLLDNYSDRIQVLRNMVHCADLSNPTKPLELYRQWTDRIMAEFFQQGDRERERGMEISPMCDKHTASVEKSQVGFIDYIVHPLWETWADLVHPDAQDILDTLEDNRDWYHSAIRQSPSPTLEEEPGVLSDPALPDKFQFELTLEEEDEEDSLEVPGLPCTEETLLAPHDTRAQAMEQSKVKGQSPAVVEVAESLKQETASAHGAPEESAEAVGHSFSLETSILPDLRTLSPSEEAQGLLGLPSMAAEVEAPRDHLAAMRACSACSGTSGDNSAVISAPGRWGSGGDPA
Outline: as §1

[11] = tested on: PDE2A, PDE4A, PDE4B, Cgs2; assay: Parallel high throughput 5FOA growth screens of bioactive libraries; format: cell-based, murine PDEs; yeast Cgs2; conditions: 3,120 bioactive compounds, average 20 μM
Protocol: High throughput drug screens were carried out at the Broad Institute's Chemical Biology Program screening facility (Broad Institute, Cambridge, Mass.). Depending upon the strain, cultures were pregrown to exponential phase in EMM complete medium containing from 0.5 to 2.5 mM cAMP to repress fbp1-ura4 transcription. […] Starting cell concentrations ranged from 0.5×10^5 to 4×10^5 cells/ml depending on the screening strain. […] Other positive control dishes contained 5 mM cAMP in the 5FOA medium. Cultures were grown for 48 hours at 30° C., sealed in an airtight container with moist paper towels to prevent evaporation. Optical densities (OD600) of cultures were measured using a microplate reader. Bioinformatic analysis of the results to determine composite Z scores was performed as previously described^30, 31.

T1 sequence (Q08499 388-715): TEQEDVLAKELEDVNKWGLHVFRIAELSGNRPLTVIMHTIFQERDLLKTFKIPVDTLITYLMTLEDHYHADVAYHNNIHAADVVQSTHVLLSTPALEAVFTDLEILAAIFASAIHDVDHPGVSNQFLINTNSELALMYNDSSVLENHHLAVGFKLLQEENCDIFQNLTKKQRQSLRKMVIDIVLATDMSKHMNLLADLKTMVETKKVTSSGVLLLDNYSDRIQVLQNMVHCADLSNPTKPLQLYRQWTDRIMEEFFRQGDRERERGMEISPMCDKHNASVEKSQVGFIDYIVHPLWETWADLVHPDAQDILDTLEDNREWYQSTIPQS

N#Cc1sc2sc(C#N)c(-c3ccco3)c2c1N [BC30]
PDE4D catalytic domain, 2 uM cpm ([1]; 2 uM compound): 2583 cpm | In vitro activation of PDE4D catalytic domain, % activity ([1]; 2 micromolar compound, DMSO = 100): 139%

Cc1ccc([N+](=O)[O-])cc1S(=O)(=O)N(C)C [BRL]
TNF alpha (EtoH = 100.0) ([2]; 3 HOURS): 92.5 | TNF ([2]; 3 HOURS, high BRL): 4565 pg/mL | TNF, % EtOH cntrl ([2]; 3 HOURS, high BRL): 94.5% | TNF ([2]; 3 HOURS, low BRL): 4491 pg/mL | TNF, % EtOH cntrl ([2]; 3 HOURS, low BRL): 93.0% | TNF alpha (EtoH = 100.0) ([2]; 20 HOURS): 102.6 | TNF ([2]; 20 HOURS, high BRL): 13111 pg/mL | TNF, % EtOH cntrl ([2]; 20 HOURS, high BRL): 95.8% | TNF ([2]; 20 HOURS, low BRL): 12718 pg/mL | TNF, % EtOH cntrl ([2]; 20 HOURS, low BRL): 92.9%

CCOC(=O)c1sc2sc(C(=O)OCC)c(-c3ccco3)c2c1N [Compound 30-1]
inhibitor class, Table 16 [3]: 1441, C04 KM03459 30-1 (4) | 1 Assay (20 uM) 4B3 [4]: 8.4406 ND ND ND ND | ED50, 7A [5]: ND ND inactive ND ND

N#Cc1sc2sc(C#N)c(-c3cccs3)c2c1N [Compound 30-2]
inhibitor class, Table 16 [3]: 1441, G04 KM03473 30-2 (1) | 1 Assay (20 uM) 4B3 [4]: −0.3999 ND ND ND ND | ED50, 7A [5]: ND ND active/plateaus ND ND

N#Cc1sc2sc(C#N)c(-c3ccc(Cl)cc3)c2c1N [Compound 30-3]
inhibitor class, Table 16 [3]: 554, N12 KM03474 30-3 (3) | 1 Assay (20 uM) 4B3 [4]: 1.462 ND ND ND ND | ED50, 7A [5]: ND ND inactive ND ND

CC(C)(C)c1c(C#N)sc2sc(C#N)c(N)c12 [Compound 30-4]
inhibitor class, Table 16 [3]: Maybridge: KM03484 30-4 (3) | ED50, 7A [5]: ND ND weak activity ND ND

CC(C)n1c2ccc(Cl)cc2c2nc3ccccc3nc21 [Compound 35]
PDE inhibitor profile (Table 17) ([3]; overall classification, Table 17 footnotes): 35 (1) | TNF ([2]; 3 HOURS): 4383 pg/mL | TNF, % EtOH cntrl ([2]; 3 HOURS): 90.7% | TNF ([2]; 20 HOURS): 11728 pg/mL | TNF, % EtOH cntrl ([2]; 20 HOURS): 85.7% | TNF alpha, % vehicle control ([2]; after 3 h.): 95.8% | TNF alpha, % vehicle control ([2]; after 20 h.): 66.1%

Cc1c(C(=O)Nc2ccc(F)cc2F)sc2ncnc(N3CCN(C)CC3)c12 [Compound 58-1]
remaining activity at 2 µM [6]: 84% | remaining activity at 2 µM [7]: 98% | remaining activity at 2 µM [8]: 64% | remaining activity at 2 µM [9]: 90%

Cc1nc(N2CCOCC2)c2c(C)c(C(=O)Nc3ccc(F)cc3F)sc2n1 [Compound 58-2]
remaining activity at 2 µM [6]: 26% | remaining activity at 2 µM [7]: 88% | remaining activity at 2 µM [8]: 39% | remaining activity at 2 µM [9]: 30%

COc1cc(NC(=O)c2sc3ncnc(N4CCCCC4C)c3c2C)cc(OC)c1OC (stereo not shown) [Compound 58-3]
remaining activity at 2 µM [6]: 14% | remaining activity at 2 µM [7]: 20% | remaining activity at 2 µM [8]: 15% | remaining activity at 2 µM [9]: 30% | Composite Z score, PDE4A1 [10]: 27.41

Cc1nc(N2CCCCC2C)c2c(C)c(C(=O)Nc3ccc(F)cc3F)sc2n1 (stereo not shown) [Compound 58-4]
remaining activity at 2 µM [6]: 26% | remaining activity at 2 µM [7]: 74% | remaining activity at 2 µM [8]: 47% | remaining activity at 2 µM [9]: 54%

Cc1nc(N2CCC(C)CC2)c2c(C)c(C(=O)Nc3c(F)cc(F)cc3Br)sc2n1 [Compound 58-5]
remaining activity at 2 µM [6]: 69% | remaining activity at 2 µM [7]: 90% | remaining activity at 2 µM [8]: 46% | remaining activity at 2 µM [9]: 68%

CCN(CC)c1nc(C)nc2sc(C(=O)Nc3ccc(F)cc3F)c(C)c12 [Compound 58-6]
remaining activity at 2 µM [6]: 73% | percent of PDE activity present, PDE7A [7]: 75% | remaining activity at 2 µM [8]: 61% | remaining activity at 2 µM [9]: 68%

CCN(CC)c1nc(C)nc2sc(C(=O)Nc3ccc(F)cc3F)c(C)c12 [Compound 58-8]
percent of PDE activity present, PDE4A [6]: 84% | percent of PDE activity present, PDE7A [7]: 48% | percent of PDE activity present, PDE4B [8]: 56% | percent of PDE activity present, PDE4D [9]: 76%

Cc1c(C(=O)Nc2ccc3c(c2)OCCO3)sc2ncnc(N3CCc4ccccc4C3)c12 [Compound 58-10]
remaining activity at 2 µM [6]: 60% | remaining activity at 2 µM [7]: 84% | remaining activity at 2 µM [8]: 39% | remaining activity at 2 µM [9]: 70% | Composite Z score, PDE4A1 [10]: 32.338

COc1c2occc2c(OC)c2c(=O)cc(C)oc12 [khellin]
hit in high throughput screens (promotes 5FOA^R growth), in words [11]: identified

Cc1cc2cc3c(C)cc(=O)oc3c(C)c2o1 [trioxsalen]
hit in high throughput screens (promotes 5FOA^R growth), in words [11]: identified

COc1c2ccoc2cc2oc(C)cc(=O)c12 [visnagin]
hit in high throughput screens (promotes 5FOA^R growth), in words [11]: identified
